Results from patent publication US20170072012A1, “USE OF GSMTX4 TO REDUCE ISCHEMIA REPERFUSION INJURY” (priority 2014, published 2017).
Read-outs that look alike come from different tables or passages of the source. Where a SMILES comes first, the peptide text is derived from it. Bridges are numbered along the chain shown (N, C = ends). [ ]: non-standard residue; d: D form.

Experiment: Single-dose pharmacokinetic study, plasma and heart concentration by LC/MS/MS
Assay type: in vivo, CD-1 mice
Settings: for Tmax: female, CD-1, mouse, plasma and heart
Description: For single-dose pharmacokinetic studies, 7-9 week old female CD-1 mice were obtained from Charles River Laboratories, Inc. by Covance Laboratories Inc., Greenfield, Ind., USA. For subcutaneous injection, GsMTx4-D was dissolved at a concentration of 7.5 mg/ml in phosphate buffered saline pH 7.4 and injected subcutaneously into the back of mice at a net dose of 50 mg/kg. For intravenous (IV) administration into the tail vein, 1.5 mg/ml GsMTx4-D was used to achieve a dose of 5 mg/kg. Animals were sacrificed at 5, 15, 30, 60, 120, 480, 960 and 1920 min after injection, and blood and heart tissue samples were harvested. Animals were checked for death or morbidity during the whole trial. At the conclusion of each trial period, mice were euthanized by CO2 inhalation for 10 min. Blood samples were treated with sodium heparin and centrifuged to obtain plasma. There were cohorts of 3 mice per time point, and tissue samples from the 3 animals were combined from each time point to create average samples. Samples were sent to Custom Biologics, Mississauga, ON, Canada to measure the amount of GsMTx4 by liquid chromatography tandem mass spectrometry (LC/MS/MS) in the tissue samples. A reference standard was included in each sample consisting of a functional mutant of GsMTx4-D (F34A). All procedures in this protocol are in compliance with the U.S. Department of Agriculture's (USDA) Animal Welfare Act (9 CFR Parts 1, 2, and 3); the Guide for the Care and Use of Laboratory Animals: Eighth Edition, (Institute for Laboratory Animal Research, The National Academies Press, Washington, D.C., 2010); and the National Institutes of Health, Office of Laboratory Animal Welfare. Whenever possible, procedures in this study were designed to avoid or minimize discomfort, distress, and pain to animals. For ischemic reperfusion (I/R) testing, we used male C57B1/6J mice (4-6 months of age) obtained from Jackson Laboratories (Bar Harbor, […].). All animal protocols in this study were approved by the Institutional Animal Care and Use Committee of the University at Buffalo-State University of New York.
To provide a frame of reference for concentration and timing, we compared IV (fast absorption) to subcutaneous (slow absorption) administration and determined the distribution of the peptide in the heart and plasma over 24 hrs using LC/MS/MS (FIG. 1). Mice were sacrificed at different times after injection and the plasma (FIG. 1A) and heart (FIG. 1B) concentrations sampled. […] The samples from the 3 mouse cohorts at each time point were mixed and averaged. […] IV injection of 5 mg/kg GsMTx4-D produced an early spike in plasma concentration ([…] at 5 min) that decayed within 30 min. […] We used 1-5 μM ([…] is 1 μM) as our target concentration for treatment. IV injection of 5 mg/kg GsMTx4-D produced plasma concentrations within 5 minutes that were substantially above the target concentration while whole heart concentrations were somewhat lower than this range. Other ranges may be used for treatment, such as about 1.5-4.5 μM, about 2-4 μM, about 2.5-3.5 μM, about 1-4 μM, about 1-3 μM and about 1-2 μM. The whole heart concentration was lower than the target range within 5 minutes of IV injection, but the net plasma concentrations were acceptable.
Based on the slower distribution by subcutaneous administration, we injected 10 times the concentration of GsMTx4-D as that used in IV injection. The concentrations increased more slowly in both plasma and heart, peaking in ˜2 hrs, although we could reliably detect it in both tissues within 5 minutes. […] Without being bound by any theory, we believe that this is likely due to deeper infiltration into the tissue, and possibly higher affinity associations.

[1] = subcutaneous injection 50 mg/kg

## CC(C)C[C@H]1NC(=O)[C@H](NC(=O)CN)CSSC[C@H]2NC(=O)[C@H]3CSSC[C@H](C(=O)N[C@H](CC(N)=O)C(=O)N[C@H](Cc4ccccc4)C(=O)N[C@H](CO)C(=O)N[C@H](Cc4ccccc4)C(N)=O)NC(=O)[C@@H](CC(C)C)NC(=O)[C@@H](CCCCN)NC(=O)[C@@H](Cc4ccccc4)NC(=O)[C@@H](CC(C)C)NC(=O)[C@@H](CCCCN)NC(=O)[C@@H](CO)NC(=O)[C@@H](CSSC[C@@H](NC(=O)[C@@H](CCCCN)NC(=O)[C@@H](Cc4c[nH]c5ccccc45)NC(=O)[C@@H](Cc4c[nH]c5ccccc45)NC(=O)[C@@H](Cc4ccccc4)NC(=O)[C@@H](CCC(=O)O)NC1=O)C(=O)N[C@H](CC(N)=O)C(=O)N1CCC[C@@H]1C(=O)N[C@H](CC(N)=O)C(=O)N[C@H](CC(=O)O)C(=O)N[C@H](CC(=O)O)C(=O)N[C@H](CCCCN)C(=O)N3)NC(=O)[C@@H](CCCCN)NC(=O)[C@@H](CC(C)C)NC(=O)[C@@H](CCCCN)NC(=O)[C@H]1CCCN1C(=O)[C@@H](CCCNC(=N)N)NC2=O [GsMTx4-D] (H-G[dC][dL][dE][dF][dW][dW][dK][dC][dN][dP][dN][dD][dD][dK][dC][dC][dR][dP][dK][dL][dK][dC][dS][dK][dL][dF][dK][dL][dC][dN][dF][dS][dF]-NH2; disulfide 2-17, 9-23, 16-30 (inferred); N-terminus and C-terminus assumed)
IV 5 mg/kg or subcutaneous 50 mg/kg
  death or abnormal behavior during PK study: No mice died during the study, nor did any show abnormal behavior
IV injection of 5 mg/kg
  time within which plasma concentration spike decayed: ≤ 30 min
5 mg/kg, after IV injection, read-out: time of concentration spike in plasma and heart
  Tmax: < 0.0833 h
sc, subcutaneous injection 50 mg/kg, read-out: time of peak concentration in plasma and heart
  Tmax: ~2 h
mouse, in vivo, D form
  half-life: > 24 h
Single 50 mg/kg subcutaneous injection, target range 1-5 μM
  heart concentration twenty four hours after injection: near the target range
[1]
  plasma concentration by 24 hrs: nearly undetectable
  time of peak concentration in plasma and heart: ~2 h
